Earlier results on two molecules are cited in patent US20120195875A1, “DETECTION OF IMMUNE MODULATION RESULTING FROM REDUCED PROTEIN PHOSPHATASE 2A ACTIVITY” (CEDARS-SINAI MEDICAL CENTER, priority 2011, published 2012).

In series [1] the test system is murine peritoneal macrophages.
Series [2] relates to macrophages.

With `C=C1[C@@H](O)[C@@H]2O[C@]3(CC[C@H](/C=C/[C@@H](C)[C@@H]4CC(C)=C[C@@]5(O[C@H](C[C@@](C)(O)C(=O)O)CC[C@H]5O)O4)O3)CC[C@H]2O[C@@H]1[C@@H](O)C[C@H](C)[C@H]1O[C@@]2(CCCCO2)CC[C@H]1C` [okadaic acid], the LPS tolerance entry in series [1] (1 h before the first or 16 h before the second LPS stimulation) is recorded as “reversed LPS tolerance”. For the same molecule, the p38 phosphorylation result in series [1] (in response to primary LPS stimulation) was “inhibition”. In addition, the “phosphorylation of ERK-1/ERK-2, JNK/SAPK and p38/SAPK-2” value in series [1] (in response to second LPS stimulation) is “restored and prolonged”.

On to `COC[C@@H]([C@H](O)[C@H](O)C(=O)NCC[C@H](C)c1nc(/C=C/C[C@@H]2O[C@]3(C[C@@H](O)[C@@H]2C)O[C@H]([C@H](C[C@H](O)[C@H](C)[C@H](O)[C@H](C)/C=C(C)/C(C)=C/C=C/C(C)=C\C#N)OC)[C@H](OP(=O)(O)O)C3(C)C)co1)N(C)C` [calyculin A], for which, in series [2], the “LPS-induced TNF-α, IL-1β, IFN-β, IP-10, IRF-1, and TNFR-2 release” value is recorded as “inhibit”; the LPS-induced macrophage responses result is “inhibits”.
